According to PMC2154353 (The Journal of General Physiology, 2007):

Tests used:
[1] = biological target: T1, MEC-4 homomeric channel (A713wt), coexpressed with MEC-2 (Caenorhabditis elegans, UniProt P24612); test: two-electrode voltage clamp, oocytes, dose-response of current block; format: cell-based
T1 sequence (P24612 1-768): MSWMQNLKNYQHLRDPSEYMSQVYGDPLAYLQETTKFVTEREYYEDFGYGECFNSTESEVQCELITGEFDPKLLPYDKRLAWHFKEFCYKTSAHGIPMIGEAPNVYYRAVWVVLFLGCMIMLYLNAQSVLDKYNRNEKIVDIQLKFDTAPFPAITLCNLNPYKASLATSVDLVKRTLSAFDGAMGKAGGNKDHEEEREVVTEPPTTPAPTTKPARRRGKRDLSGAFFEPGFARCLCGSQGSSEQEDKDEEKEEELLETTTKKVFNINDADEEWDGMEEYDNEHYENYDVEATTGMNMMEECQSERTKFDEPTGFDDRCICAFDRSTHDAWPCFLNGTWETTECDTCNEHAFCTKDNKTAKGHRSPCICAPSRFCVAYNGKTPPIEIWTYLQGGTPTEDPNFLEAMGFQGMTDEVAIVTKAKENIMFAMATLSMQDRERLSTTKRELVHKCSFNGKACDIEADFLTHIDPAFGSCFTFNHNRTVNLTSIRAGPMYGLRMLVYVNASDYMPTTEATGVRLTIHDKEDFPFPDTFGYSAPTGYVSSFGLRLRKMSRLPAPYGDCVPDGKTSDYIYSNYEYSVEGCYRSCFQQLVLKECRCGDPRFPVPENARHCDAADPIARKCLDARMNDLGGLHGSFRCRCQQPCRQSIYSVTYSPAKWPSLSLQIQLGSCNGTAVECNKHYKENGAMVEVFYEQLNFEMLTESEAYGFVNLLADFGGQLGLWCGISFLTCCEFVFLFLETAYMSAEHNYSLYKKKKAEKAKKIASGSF
T1 sequence (Q27433 1-481 partner): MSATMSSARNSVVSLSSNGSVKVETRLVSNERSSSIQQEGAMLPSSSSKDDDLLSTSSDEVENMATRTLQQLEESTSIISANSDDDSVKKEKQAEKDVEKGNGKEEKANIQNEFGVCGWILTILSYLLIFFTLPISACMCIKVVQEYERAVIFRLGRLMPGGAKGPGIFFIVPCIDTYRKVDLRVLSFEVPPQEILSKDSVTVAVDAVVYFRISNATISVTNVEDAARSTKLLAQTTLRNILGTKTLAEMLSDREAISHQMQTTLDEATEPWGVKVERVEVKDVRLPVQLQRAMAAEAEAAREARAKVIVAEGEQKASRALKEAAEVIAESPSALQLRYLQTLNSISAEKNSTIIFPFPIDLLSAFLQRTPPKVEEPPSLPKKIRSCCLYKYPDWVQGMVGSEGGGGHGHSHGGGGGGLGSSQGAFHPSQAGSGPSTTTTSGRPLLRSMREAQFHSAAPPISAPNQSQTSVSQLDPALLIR

[2] = biological target: T2, MEC-4 homomeric channel (A713wt), coexpressed with MEC-2 (Caenorhabditis elegans, UniProt P24612, A713T); test: as above; format: cell-based
T2 sequence (P24612 1-768 A713T): T1 sequence (P24612 1-768)
T2 sequence (Q27433 1-481 partner): T1 sequence (Q27433 1-481 partner)

Ki [1] [µM] | Ki [2] [µM] | Compound
0.15 ± 0.01 | 0.83 ± 0.14 | NC(=NCc1ccccc1)NC(=O)c1nc(Cl)c(N)nc1N [benzamil]
108 ± 3 | 196 ± 40 | N=C(N)c1ccccc1 [benzamidine]
